Measured values: ChEMBL document CHEMBL5303769, “Data for DCP probe JNJ-42226314” (2023)

Key:
D(1B) dopamine receptor [1] = target: T1, D(1B) dopamine receptor (Homo sapiens, UniProt P21918); test: GPCRScan assay: inhibition of D5; parameters: radioligand conc. used [nm] 2.0 – 3.0, parental cells HEKT
[2] = target: 5-hydroxytryptamine receptor 1A (Homo sapiens) (UniProt P08908); details: Compound concentration 10.0 uM
[3] = target: 5-hydroxytryptamine receptor 1B (Homo sapiens) (UniProt P28222); details: Compound concentration 10.0 uM
[4] = target: 5-hydroxytryptamine receptor 1D (Homo sapiens) (UniProt P28221); details: Compound concentration 10.0 uM
[5] = target: 5-hydroxytryptamine receptor 2A (Homo sapiens) (UniProt P28223); details: Compound concentration 10.0 uM
Chain of 5-hydroxytryptamine receptor 2A (Homo sapiens) (P28223 whole entry): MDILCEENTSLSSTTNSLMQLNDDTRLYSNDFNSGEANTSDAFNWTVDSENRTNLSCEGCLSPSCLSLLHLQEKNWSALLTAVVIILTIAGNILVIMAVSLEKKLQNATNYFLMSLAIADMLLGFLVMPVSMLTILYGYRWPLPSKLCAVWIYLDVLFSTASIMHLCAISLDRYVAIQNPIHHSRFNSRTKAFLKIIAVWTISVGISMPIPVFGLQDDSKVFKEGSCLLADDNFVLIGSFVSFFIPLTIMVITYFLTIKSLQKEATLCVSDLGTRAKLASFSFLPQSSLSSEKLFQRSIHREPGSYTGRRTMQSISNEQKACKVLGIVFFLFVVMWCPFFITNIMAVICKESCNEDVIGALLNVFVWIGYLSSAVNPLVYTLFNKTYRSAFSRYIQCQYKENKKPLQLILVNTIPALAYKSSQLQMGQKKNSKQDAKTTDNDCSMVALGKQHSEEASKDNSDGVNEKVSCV

[6] = target: 5-hydroxytryptamine receptor 2B (Homo sapiens) (UniProt P41595); details: Compound concentration 10.0 uM
Chain of 5-hydroxytryptamine receptor 2B (Homo sapiens) (P41595 whole entry): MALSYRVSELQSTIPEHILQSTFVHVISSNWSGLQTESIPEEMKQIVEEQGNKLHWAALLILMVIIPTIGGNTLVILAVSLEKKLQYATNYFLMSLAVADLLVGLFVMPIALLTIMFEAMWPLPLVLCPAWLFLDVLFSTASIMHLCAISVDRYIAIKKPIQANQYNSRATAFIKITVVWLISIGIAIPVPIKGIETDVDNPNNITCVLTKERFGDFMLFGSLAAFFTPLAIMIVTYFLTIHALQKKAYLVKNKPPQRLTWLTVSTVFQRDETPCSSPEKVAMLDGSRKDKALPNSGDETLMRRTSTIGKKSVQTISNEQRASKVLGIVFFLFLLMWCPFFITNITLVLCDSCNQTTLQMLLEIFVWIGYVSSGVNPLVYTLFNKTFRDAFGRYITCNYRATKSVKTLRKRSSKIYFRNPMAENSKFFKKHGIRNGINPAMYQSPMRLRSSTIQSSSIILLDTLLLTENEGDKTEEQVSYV

[7] = target: 5-hydroxytryptamine receptor 2C (Homo sapiens) (UniProt P28335); details: Compound concentration 10.0 uM
[8] = target: 5-hydroxytryptamine receptor 3A (Homo sapiens) (UniProt P46098); details: Compound concentration 10.0 uM
[9] = target: 5-hydroxytryptamine receptor 5A (Homo sapiens) (UniProt P47898); details: Compound concentration 10.0 uM
[10] = target: 5-hydroxytryptamine receptor 6 (Homo sapiens) (UniProt P50406); details: Compound concentration 10.0 uM
[11] = target: 5-hydroxytryptamine receptor 7 (Homo sapiens) (UniProt P34969); details: Compound concentration 10.0 uM
[12] = target: D(2) dopamine receptor (Homo sapiens) (UniProt P14416); details: Compound concentration 10.0 uM
[13] = target: D(3) dopamine receptor (Homo sapiens) (UniProt P35462); details: Compound concentration 10.0 uM
Chain of D(3) dopamine receptor (Homo sapiens) (P35462 whole entry): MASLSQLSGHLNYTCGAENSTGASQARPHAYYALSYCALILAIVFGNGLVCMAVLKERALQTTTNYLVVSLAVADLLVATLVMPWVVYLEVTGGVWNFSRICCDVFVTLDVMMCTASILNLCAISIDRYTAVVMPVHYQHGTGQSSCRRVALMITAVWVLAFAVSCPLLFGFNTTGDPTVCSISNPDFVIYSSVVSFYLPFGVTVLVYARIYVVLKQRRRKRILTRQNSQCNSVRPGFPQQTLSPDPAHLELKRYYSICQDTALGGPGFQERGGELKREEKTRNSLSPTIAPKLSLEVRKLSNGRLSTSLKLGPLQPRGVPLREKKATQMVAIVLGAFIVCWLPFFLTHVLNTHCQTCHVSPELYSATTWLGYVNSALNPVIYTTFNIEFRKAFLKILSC

[14] = target: D(4) dopamine receptor (Homo sapiens) (UniProt P21917); details: Compound concentration 10.0 uM
[15] = target: Sodium-dependent serotonin transporter (Homo sapiens) (UniProt P31645); details: Compound concentration 10.0 uM
[16] = target: Sodium-dependent noradrenaline transporter (Homo sapiens) (UniProt P23975); details: Compound concentration 10.0 uM
[17] = target: Sodium-dependent dopamine transporter (Homo sapiens) (UniProt Q01959); details: Compound concentration 10.0 uM
Chain of Sodium-dependent dopamine transporter (Homo sapiens) (Q01959 whole entry): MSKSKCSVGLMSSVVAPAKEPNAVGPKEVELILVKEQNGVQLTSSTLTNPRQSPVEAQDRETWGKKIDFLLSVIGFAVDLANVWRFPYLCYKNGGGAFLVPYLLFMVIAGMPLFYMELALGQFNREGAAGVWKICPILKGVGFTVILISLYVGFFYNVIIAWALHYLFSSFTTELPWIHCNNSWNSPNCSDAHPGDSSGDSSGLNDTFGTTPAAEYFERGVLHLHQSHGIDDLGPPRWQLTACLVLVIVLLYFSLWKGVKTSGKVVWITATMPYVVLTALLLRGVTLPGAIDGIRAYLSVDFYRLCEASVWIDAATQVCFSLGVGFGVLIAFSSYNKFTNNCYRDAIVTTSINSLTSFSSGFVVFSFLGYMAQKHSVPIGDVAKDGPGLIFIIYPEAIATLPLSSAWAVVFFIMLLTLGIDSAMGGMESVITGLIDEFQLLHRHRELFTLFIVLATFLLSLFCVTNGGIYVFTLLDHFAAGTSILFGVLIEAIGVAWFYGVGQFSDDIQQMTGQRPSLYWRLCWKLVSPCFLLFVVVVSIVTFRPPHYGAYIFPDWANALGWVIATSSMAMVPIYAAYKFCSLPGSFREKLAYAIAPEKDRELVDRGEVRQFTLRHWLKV

[18] = target: Mu-type opioid receptor (Homo sapiens) (UniProt P35372); details: Compound concentration 10.0 uM
[19] = target: Delta-type opioid receptor (Homo sapiens) (UniProt P41143); details: Compound concentration 10.0 uM
[20] = target: Kappa-type opioid receptor (Homo sapiens) (UniProt P41145); details: Compound concentration 10.0 uM
[21] = target: Histamine H1 receptor (Homo sapiens) (UniProt P35367); details: Compound concentration 10.0 uM
Chain of Histamine H1 receptor (Homo sapiens) (P35367 whole entry): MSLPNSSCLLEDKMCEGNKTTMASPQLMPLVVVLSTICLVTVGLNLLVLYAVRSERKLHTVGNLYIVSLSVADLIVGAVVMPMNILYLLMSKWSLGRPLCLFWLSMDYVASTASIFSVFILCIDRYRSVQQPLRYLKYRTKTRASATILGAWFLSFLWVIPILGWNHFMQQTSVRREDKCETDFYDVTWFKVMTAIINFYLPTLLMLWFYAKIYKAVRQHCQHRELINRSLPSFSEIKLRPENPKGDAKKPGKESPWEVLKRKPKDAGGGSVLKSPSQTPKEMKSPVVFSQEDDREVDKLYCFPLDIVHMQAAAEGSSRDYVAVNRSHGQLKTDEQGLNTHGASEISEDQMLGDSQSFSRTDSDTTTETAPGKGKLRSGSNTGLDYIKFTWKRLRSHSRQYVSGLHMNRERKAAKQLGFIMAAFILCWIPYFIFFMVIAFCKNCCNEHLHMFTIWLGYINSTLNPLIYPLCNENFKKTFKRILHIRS

[22] = target: Histamine H2 receptor (Homo sapiens) (UniProt P25021); details: Compound concentration 10.0 uM
[23] = target: Histamine H3 receptor (Homo sapiens) (UniProt Q9Y5N1); details: Compound concentration 10.0 uM
[24] = target: Histamine H4 receptor (Homo sapiens) (UniProt Q9H3N8); details: Compound concentration 10.0 uM
[25] = target: Alpha-1A adrenergic receptor (Homo sapiens) (UniProt P35348); details: Compound concentration 10.0 uM
Chain of Alpha-1A adrenergic receptor (Homo sapiens) (P35348 whole entry): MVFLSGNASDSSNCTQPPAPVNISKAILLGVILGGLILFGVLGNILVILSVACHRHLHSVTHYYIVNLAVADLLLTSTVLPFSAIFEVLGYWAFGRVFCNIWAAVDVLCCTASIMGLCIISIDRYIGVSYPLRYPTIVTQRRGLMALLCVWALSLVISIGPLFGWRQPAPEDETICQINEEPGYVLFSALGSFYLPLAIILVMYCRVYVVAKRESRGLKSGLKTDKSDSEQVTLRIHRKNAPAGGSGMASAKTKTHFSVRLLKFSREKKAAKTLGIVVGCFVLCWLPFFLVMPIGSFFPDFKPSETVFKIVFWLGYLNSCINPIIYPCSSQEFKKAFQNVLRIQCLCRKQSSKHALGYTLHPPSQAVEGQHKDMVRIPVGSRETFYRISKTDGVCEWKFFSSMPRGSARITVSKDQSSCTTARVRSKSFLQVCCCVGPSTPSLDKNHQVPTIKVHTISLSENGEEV

[26] = target: Alpha-1B adrenergic receptor (Homo sapiens) (UniProt P35368); details: Compound concentration 10.0 uM
[27] = target: Alpha-2A adrenergic receptor (Homo sapiens) (UniProt P08913); details: Compound concentration 10.0 uM
[28] = target: Alpha-2B adrenergic receptor (Homo sapiens) (UniProt P18089); details: Compound concentration 10.0 uM
Chain of Alpha-2B adrenergic receptor (Homo sapiens) (P18089 whole entry): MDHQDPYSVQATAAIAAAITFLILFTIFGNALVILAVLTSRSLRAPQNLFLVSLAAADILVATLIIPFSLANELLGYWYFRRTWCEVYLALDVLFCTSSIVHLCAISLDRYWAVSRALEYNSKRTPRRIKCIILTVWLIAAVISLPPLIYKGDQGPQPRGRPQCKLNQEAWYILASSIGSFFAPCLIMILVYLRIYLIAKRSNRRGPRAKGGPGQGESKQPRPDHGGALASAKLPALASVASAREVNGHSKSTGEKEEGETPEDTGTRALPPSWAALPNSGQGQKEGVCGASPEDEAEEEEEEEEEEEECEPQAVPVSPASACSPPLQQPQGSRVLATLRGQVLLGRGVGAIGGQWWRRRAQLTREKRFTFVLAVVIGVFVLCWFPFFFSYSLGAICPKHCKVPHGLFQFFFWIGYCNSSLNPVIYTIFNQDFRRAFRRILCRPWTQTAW

[29] = target: Alpha-2C adrenergic receptor (Homo sapiens) (UniProt P18825); details: Compound concentration 10.0 uM
[30] = target: Beta-1 adrenergic receptor (Homo sapiens) (UniProt P08588); details: Compound concentration 10.0 uM
Chain of Beta-1 adrenergic receptor (Homo sapiens) (P08588 whole entry, looked up): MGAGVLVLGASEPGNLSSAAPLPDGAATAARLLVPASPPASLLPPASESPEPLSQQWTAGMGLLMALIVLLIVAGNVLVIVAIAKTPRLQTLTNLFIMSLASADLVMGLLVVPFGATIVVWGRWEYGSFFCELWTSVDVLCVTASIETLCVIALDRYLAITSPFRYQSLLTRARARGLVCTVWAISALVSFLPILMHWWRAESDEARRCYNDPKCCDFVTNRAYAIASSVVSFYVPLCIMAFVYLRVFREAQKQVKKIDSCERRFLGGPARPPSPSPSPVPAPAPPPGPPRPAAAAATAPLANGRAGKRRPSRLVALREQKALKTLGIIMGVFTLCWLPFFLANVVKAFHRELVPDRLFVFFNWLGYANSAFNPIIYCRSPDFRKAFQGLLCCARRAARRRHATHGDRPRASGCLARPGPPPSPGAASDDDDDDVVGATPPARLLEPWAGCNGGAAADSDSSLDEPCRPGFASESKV

[31] = target: Beta-2 adrenergic receptor (Homo sapiens) (UniProt P07550); details: Compound concentration 10.0 uM
[32] = target: Muscarinic acetylcholine receptor M2 (Homo sapiens) (UniProt P08172); details: Compound concentration 10.0 uM
[33] = target: T2, Muscarinic acetylcholine receptor M3 (Homo sapiens, UniProt P20309); details: Compound concentration 10.0 uM
[34] = target: Muscarinic acetylcholine receptor M5 (Homo sapiens) (UniProt P08912); details: Compound concentration 10.0 uM
Chain of Muscarinic acetylcholine receptor M5 (Homo sapiens) (P08912 whole entry): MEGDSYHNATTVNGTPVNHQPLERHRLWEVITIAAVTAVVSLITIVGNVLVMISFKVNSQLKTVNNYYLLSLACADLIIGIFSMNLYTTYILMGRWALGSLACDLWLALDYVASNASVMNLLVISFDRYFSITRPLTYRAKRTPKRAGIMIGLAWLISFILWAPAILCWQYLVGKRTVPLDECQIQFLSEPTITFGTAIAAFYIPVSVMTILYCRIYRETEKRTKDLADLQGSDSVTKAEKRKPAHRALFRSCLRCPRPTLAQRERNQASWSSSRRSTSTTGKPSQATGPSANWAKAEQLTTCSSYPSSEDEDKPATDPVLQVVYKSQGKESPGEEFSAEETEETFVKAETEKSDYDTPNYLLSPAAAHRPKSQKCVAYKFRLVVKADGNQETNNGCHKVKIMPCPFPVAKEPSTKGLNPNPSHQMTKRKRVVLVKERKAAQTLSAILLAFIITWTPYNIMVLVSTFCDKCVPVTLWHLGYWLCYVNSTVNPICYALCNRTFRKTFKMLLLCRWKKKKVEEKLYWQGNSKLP

[35] = target: Beta-3 adrenergic receptor (Homo sapiens) (UniProt P13945); details: Compound concentration 10.0 uM
[36] = target: GABA-A receptor; anion channel (Rattus norvegicus) (UniProt O09028+P15431+P18506+P18508+P19969+P20236+P23574+P23576+P28471+P28473+P30191+P62813+P63079+P63138+Q91ZM7+Q9ES14); details: Compound concentration 10.0 uM
Rattus norvegicus = species on record: Rattus norvegicus; details: Compound concentration 10.0 uM
[37] = target: Alpha-1D adrenergic receptor (Homo sapiens) (UniProt P25100); details: Compound concentration 10.0 uM
Chain of Alpha-1D adrenergic receptor (Homo sapiens) (P25100 whole entry): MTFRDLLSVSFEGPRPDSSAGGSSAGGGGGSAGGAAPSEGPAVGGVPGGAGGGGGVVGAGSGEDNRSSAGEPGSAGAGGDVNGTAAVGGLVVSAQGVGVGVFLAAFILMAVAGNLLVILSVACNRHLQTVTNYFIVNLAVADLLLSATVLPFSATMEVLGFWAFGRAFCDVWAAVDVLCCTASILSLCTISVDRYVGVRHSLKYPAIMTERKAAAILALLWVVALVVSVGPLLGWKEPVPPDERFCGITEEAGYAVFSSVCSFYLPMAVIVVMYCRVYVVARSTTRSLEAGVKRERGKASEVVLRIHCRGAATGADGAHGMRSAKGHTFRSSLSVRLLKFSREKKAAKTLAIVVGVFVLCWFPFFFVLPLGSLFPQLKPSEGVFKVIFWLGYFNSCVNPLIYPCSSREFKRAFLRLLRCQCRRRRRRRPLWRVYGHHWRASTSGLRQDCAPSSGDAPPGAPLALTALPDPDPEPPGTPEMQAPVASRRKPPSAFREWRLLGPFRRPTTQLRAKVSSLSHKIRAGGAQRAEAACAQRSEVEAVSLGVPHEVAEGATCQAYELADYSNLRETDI

[38] = target: Sigma intracellular receptor 2 (Homo sapiens) (UniProt Q5BJF2); details: Compound concentration 10.0 uM
[39] = target: Sigma non-opioid intracellular receptor 1 (Homo sapiens) (UniProt Q99720); details: Compound concentration 10.0 uM
[40] = target: Monoacylglycerol lipase (Homo sapiens); test: Fluorometric Assay (Inhibition of 4MU-B cleavage)
[41] = target: T2, Muscarinic acetylcholine receptor M3; test: GPCRScan assay: inhibition of M3; parameters: radioligand conc. used [nm] 0.3 – 1.0, parental cells stable CHO
Tryptase (Homo sapiens) = Tryptase (Homo sapiens) (UniProt Q9BZJ3+Q15661+Q9NRR2); test: Tryptase Serine protease panel; details: Compound concentration 10.0 uM
[42] = target: Neutrophil elastase (Homo sapiens) (UniProt P08246); test: Elastase Serine protease panel; details: Compound concentration 10.0 uM
[43] = target: Plasminogen (Homo sapiens) (UniProt P00747); test: Plasmin Serine protease panel; details: Compound concentration 10.0 uM
[44] = target: Chymotrypsin (Homo sapiens) (UniProt Q99895+P17538+P40313+Q6GPI1); test: Chymotrypsin Serine protease panel; assay type: protein assay; details: Compound concentration 10.0 uM
[45] = target: Tissue-type plasminogen activator (Homo sapiens) (UniProt P00750); test: TPA Serine protease panel; details: Compound concentration 10.0 uM
[46] = target: Kallikrein-1 (Homo sapiens) (UniProt P06870); test: Kallikrein Serine protease panel; details: Compound concentration 10.0 uM
[47] = target: Prothrombin (Homo sapiens) (UniProt P00734); test: Thrombin Serine protease panel; details: Compound concentration 10.0 uM
Chymase (Homo sapiens) = Chymase (Homo sapiens) (UniProt P23946); test: Chymase Serine protease panel; details: Compound concentration 10.0 uM
[48] = target: Cathepsin G (Homo sapiens) (UniProt P08311); test: Cathepsin G Serine protease panel; details: Compound concentration 10.0 uM
[49] = target: Myeloblastin (Homo sapiens) (UniProt P24158); test: Proteinase 3 Serine protease panel; details: Compound concentration 10.0 uM
[50] = target: Coagulation factor VII (Homo sapiens) (UniProt P08709); test: Factor VIIa Serine protease panel; details: Compound concentration 10.0 uM
[51] = target: Urokinase-type plasminogen activator (Homo sapiens) (UniProt P00749); test: Urokinase Serine protease panel; details: Compound concentration 10.0 uM
Homo sapiens = species on record: Homo sapiens; test: Streptokinase Serine protease panel; details: Compound concentration 10.0 uM
[52] = target: Serine protease 1 (Homo sapiens) (UniProt P07477); test: Trypsin Serine protease panel; details: Compound concentration 10.0 uM
[53] = target: Coagulation factor X (Homo sapiens) (UniProt P00742); test: Factor Xa Serine protease panel; details: concentration not given here
[54] = target: Monoacylglycerol lipase ABHD6 (Homo sapiens, UniProt Q9BV23); test: hABHD6 Endocannabinoid related and lipase panel
[55] = target: Lysophosphatidylserine lipase ABHD12 (Homo sapiens, UniProt Q8N2K0); test: hABHD12 Endocannabinoid related and lipase panel
Endothelial lipase = Endothelial lipase (Homo sapiens, UniProt Q9Y5X9); test: Endothelial lipase Endocannabinoid related and lipase panel
[56] = target: Hepatic triacylglycerol lipase (Homo sapiens, UniProt P11150); test: Hepatic lipase Endocannabinoid related and lipase panel
Lipoprotein lipase = Lipoprotein lipase (Homo sapiens, UniProt P06858); test: Lipoprotein lipase Endocannabinoid related and lipase panel
D(1B) dopamine receptor [57] = target: T1, D(1B) dopamine receptor; details: Compound concentration 10.0 uM
[58] = target: Muscarinic acetylcholine receptor M4 (Homo sapiens) (UniProt P08173); details: Compound concentration 10.0 uM

## Cc1cc(C(=O)N2CCN(C3CN(C(=O)c4ccc(-c5ccccc5)cc4)C3)CC2)no1
D(1B) dopamine receptor [1]
  Ki: > 10 µM
  pKi: < 5
[2]
  inhibition: 18.1%
[3]
  inhibition: 35%
[4]
  inhibition: 22.7%
[5]
  inhibition: 8.77%
[6]
  inhibition: 8.86%
[7]
  inhibition: 2.58%
[8]
  inhibition: 9.93%
[9]
  inhibition: 11.5%
[10]
  inhibition: 17%
[11]
  inhibition: 12.4%
[12]
  inhibition: 8.15%
[13]
  inhibition: 11.1%
[14]
  inhibition: 16%
[15]
  inhibition: 22.3%
[16]
  inhibition: 3.51%
[17]
  inhibition: 43.5%
[18]
  inhibition: 49.1%
[19]
  inhibition: 39%
[20]
  inhibition: 24.2%
[21]
  inhibition: 29.9%
[22]
  inhibition: 32.4%
[23]
  inhibition: 41.2%
[24]
  inhibition: -7.89%
[25]
  inhibition: -6.9%
[26]
  inhibition: -7.67%
[27]
  inhibition: 23.3%
[28]
  inhibition: 23%
[29]
  inhibition: 16.6%
[30]
  inhibition: -6.07%
[31]
  inhibition: 0.18%
[32]
  inhibition: -3.68%
[33]
  inhibition: 48.9%
[34]
  inhibition: -4.46%
[35]
  inhibition: 23.6%
[36]
  inhibition: 36.5%
Rattus norvegicus
  inhibition: 38%
[37]
  inhibition: 10.4%
[38]
  inhibition: 43.6%
[39]
  inhibition: 37.1%
[40]
  IC50: > 10 µM (not active)

## O=C(c1ccc2c(ccn2-c2ccc(F)cc2)c1)N1CC(N2CCN(C(=O)c3nccs3)CC2)C1
[41]
  Ki: > 10 µM
  pKi: < 5
Tryptase (Homo sapiens)
  inhibition: 2%
[42]
  inhibition: 4%
[43]
  inhibition: 4%
[44]
  inhibition: -3%
[45]
  inhibition: 6%
[46]
  inhibition: 4%
[47]
  inhibition: -1%
Chymase (Homo sapiens)
  inhibition: 11%
[48]
  inhibition: 13%
[49]
  inhibition: 7%
[50]
  inhibition: -5%
[51]
  inhibition: 2%
Homo sapiens
  inhibition: 1%
[52]
  inhibition: -10%
[53]
  inhibition: 0%
[54]
  IC50: > 10 µM
[55]
  IC50: > 10 µM
Endothelial lipase
  IC50: > 30 µM
[56]
  IC50: > 30 µM
Lipoprotein lipase
  IC50: > 30 µM
[2]
  inhibition: 11.6%
[3]
  inhibition: 6.33%
[4]
  inhibition: 18.2%
[5]
  inhibition: 7.06%
[6]
  inhibition: 8.47%
[8]
  inhibition: 19.3%
[9]
  inhibition: 17.7%
[10]
  inhibition: -9.24%
[11]
  inhibition: 12.8%
[12]
  inhibition: -9.71%
[13]
  inhibition: 1.99%
[14]
  inhibition: 0.01%
D(1B) dopamine receptor [57]
  inhibition: -0.29%
[15]
  inhibition: 8.15%
[16]
  inhibition: 8.01%
[17]
  inhibition: 25.2%
[18]
  inhibition: 14.5%
[19]
  inhibition: 9.83%
[20]
  inhibition: 11.1%
[21]
  inhibition: 4.93%
[22]
  inhibition: 2.62%
[23]
  inhibition: 19.4%
[24]
  inhibition: -8.52%
[25]
  inhibition: -2.02%
[26]
  inhibition: -6.82%
[27]
  inhibition: 14.2%
[28]
  inhibition: 9.63%
[29]
  inhibition: 4.03%
[30]
  inhibition: -2.68%
[31]
  inhibition: -2.21%
[32]
  inhibition: -3.14%
[33]
  inhibition: 54.7%
[58]
  inhibition: 1.62%
[34]
  inhibition: -7.3%
[35]
  inhibition: 0.7%
Rattus norvegicus
  inhibition: -0.52%
[37]
  inhibition: 9.02%
[38]
  inhibition: 27.6%
[39]
  inhibition: 27.6%
